# Measured values published in patent US9708314B2, “Heterocyclic amide compound” (NISSAN CHEMICAL INDUSTRIES, LTD., priority 2013, dated 2017).
# What was measured:
# Zea mays = assay: Test Example 4: effect on crop by application to foliage (diluvial soil, plastic box); assay type: in vivo; conditions: for c: effect on crop, Zea mays: application to foliage, application herbicide amount 320 g/ha; for c (Zea mays) effect on crop grade: Application herbicide amount 320 g/ha, foliage application
# How it was run: (§1)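 Read-out is a 0–5 visual grade of herbicidal ratio (5: ≥90%, almost withered; 0: ≤5%) taken three weeks after treatment. Compound was applied as a diluted emulsion to stem and leaf parts of 14-day greenhouse-grown plants (25° C. to 30° C.) at rates expressed as g/ha.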
# Glycine max = assay: as above; assay type: in vivo; conditions: for d: effect on crop, Glycine max: application to foliage, application herbicide amount 320 g/ha; for d (Glycine max) effect on crop grade: Application herbicide amount 320 g/ha, foliage application
# How it was run: as §1
# [1] = system: Beta vulgaris ssp. vulgaris; assay: as above; assay type: in vivo; conditions: for f: effect on crop, Beta vulgaris ssp. vulgaris: application to foliage, application herbicide amount 320 g/ha; for f (Beta vulgaris ssp. vulgaris) effect on crop grade: Application herbicide amount 320 g/ha, foliage application
# How it was run: as §1
# Triticum aestivum = assay: as above; assay type: in vivo; conditions: for e: effect on crop, Triticum aestivum: application to foliage, application herbicide amount 320 g/ha; for e (Triticum aestivum) effect on crop grade: Application herbicide amount 320 g/ha, foliage application
# How it was run: as §1
# [2] = system: directly sowed Oryza sativa; assay: as above; assay type: in vivo; conditions: for b: effect on crop, directly sowed Oryza sativa: application to foliage, application herbicide amount 320 g/ha; for b (directly sowed Oryza sativa) effect on crop grade: Application herbicide amount 320 g/ha, foliage application
# How it was run: as §1
# Brassica campestris L. = assay: as above; assay type: in vivo; conditions: for g: effect on crop, Brassica campestris L.: application to foliage, application herbicide amount 320 g/ha; for g (Brassica campestris L.) effect on crop grade: Application herbicide amount 320 g/ha, foliage application
# How it was run: as §1
# Abutilon theophrasti = assay: Test Example 4: herbicidal effect by application to foliage (diluvial soil, plastic box); assay type: in vivo; conditions: for M: herbicidal effect on Abutilon theophrasti: application to foliage, application herbicide amount 320 g/ha; for M (Abutilon theophrasti) herbicidal effect grade: Application herbicide amount 320 g/ha, foliage application
# How it was run: as §1
# Digitaria ciliaris = assay: as above; assay type: in vivo; conditions: for F: herbicidal effect on Digitaria ciliaris: application to foliage, application herbicide amount 320 g/ha; for F (Digitaria ciliaris) herbicidal effect grade: Application herbicide amount 320 g/ha, foliage application
# How it was run: as §1
# Amaranthus retroflexus = assay: as above; assay type: in vivo; conditions: for N: herbicidal effect on Amaranthus retroflexus: application to foliage, application herbicide amount 320 g/ha; for N (Amaranthus retroflexus) herbicidal effect grade: Application herbicide amount 320 g/ha, foliage application
# How it was run: as §1
# [3] = system: Echinochloa crus-galli var. crus-galli; assay: as above; assay type: in vivo; conditions: for H: herbicidal effect on Echinochloa crus-galli var. crus-galli: application to foliage, application herbicide amount 320 g/ha; for H (Echinochloa crus-galli var. crus-galli) herbicidal effect grade: Application herbicide amount 320 g/ha, foliage application
# How it was run: as §1
# Stellaria media = assay: as above; assay type: in vivo; conditions: for P: herbicidal effect on Stellaria media: application to foliage, application herbicide amount 320 g/ha; for P (Stellaria media) herbicidal effect grade: Application herbicide amount 320 g/ha, foliage application
# How it was run: as §1
# Galium spurium = assay: as above; assay type: in vivo; conditions: for Q: herbicidal effect on Galium spurium: application to foliage, application herbicide amount 320 g/ha; for Q (Galium spurium) herbicidal effect grade: Application herbicide amount 320 g/ha, foliage application
# How it was run: as §1
# Veronica persica = assay: as above; assay type: in vivo; conditions: for R: herbicidal effect on Veronica persica: application to foliage, application herbicide amount 320 g/ha; for R (Veronica persica) herbicidal effect grade: Application herbicide amount 320 g/ha, foliage application
# How it was run: as §1
# Avena fatua = assay: as above; assay type: in vivo; conditions: for I: herbicidal effect on Avena fatua: application to foliage, application herbicide amount 320 g/ha; for I (Avena fatua) herbicidal effect grade: Application herbicide amount 320 g/ha, foliage application
# How it was run: as §1
# Chenopodium album = assay: as above; assay type: in vivo; conditions: for O: herbicidal effect on Chenopodium album: application to foliage, application herbicide amount 320 g/ha; for O (Chenopodium album) herbicidal effect grade: Application herbicide amount 320 g/ha, foliage application
# How it was run: as §1
# Alopecurus myosuroides = assay: as above; assay type: in vivo; conditions: for J: herbicidal effect on Alopecurus myosuroides: application to foliage, application herbicide amount 320 g/ha; for J (Alopecurus myosuroides) herbicidal effect grade: Application herbicide amount 320 g/ha, foliage application
# How it was run: as §1
# Apera spica-venti. = assay: as above; assay type: in vivo; conditions: for L: herbicidal effect on Apera spica-venti.: application to foliage, application herbicide amount 320 g/ha; for L (Apera spica-venti.) herbicidal effect grade: Application herbicide amount 320 g/ha, foliage application
# How it was run: as §1
# Lolium multiflorum Lam. = assay: as above; assay type: in vivo; conditions: for K: herbicidal effect on Lolium multiflorum Lam.: application to foliage, application herbicide amount 320 g/ha; for K (Lolium multiflorum Lam.) herbicidal effect grade: Application herbicide amount 320 g/ha, foliage application
# How it was run: as §1
# Monochoria vaginalis = assay: Test Example 2: herbicidal activity, application during weed generation in submerged conditions; assay type: in vivo; conditions: Eighteenth Table; application herbicide amount 320 g/ha
# How it was run: (§2)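 Paddy-type pot test: flooded soil, 4 cm depth, greenhouse 25–30 °C. Emulsion formulation diluted in water, applied to water surface at 1–2 leaf stage; rate expressed as g/ha. Read-out at 3 wk, 0–5 score.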
# [4] = system: Echinochloa oryzacola Vasing.; assay: as above; assay type: in vivo; conditions: Eighteenth Table; application herbicide amount 320 g/ha
# How it was run: as §2
# Scirpus juncoides = assay: as above; assay type: in vivo; conditions: Eighteenth Table; application herbicide amount 320 g/ha
# How it was run: as §2
Structure (SMILES),"c: effect on crop, Zea mays (Zea mays)","d: effect on crop, Glycine max (Glycine max)","f: effect on crop, Beta vulgaris ssp. vulgaris [1]","e: effect on crop, Triticum aestivum (Triticum aestivum)","b: effect on crop, directly sowed Oryza sativa [2]","g: effect on crop, Brassica campestris L. (Brassica campestris L.)",M: herbicidal effect on Abutilon theophrasti (Abutilon theophrasti),F: herbicidal effect on Digitaria ciliaris (Digitaria ciliaris),N: herbicidal effect on Amaranthus retroflexus (Amaranthus retroflexus),H: herbicidal effect on Echinochloa crus-galli var. crus-galli [3],P: herbicidal effect on Stellaria media (Stellaria media),Q: herbicidal effect on Galium spurium (Galium spurium),R: herbicidal effect on Veronica persica (Veronica persica),I: herbicidal effect on Avena fatua (Avena fatua),O: herbicidal effect on Chenopodium album (Chenopodium album),J: herbicidal effect on Alopecurus myosuroides (Alopecurus myosuroides),L: herbicidal effect on Apera spica-venti. (Apera spica-venti.),C (Monochoria vaginalis) herbicidal ratio grade (Monochoria vaginalis),A (Echinochloa oryzicola Vasing.) herbicidal ratio grade [4],B (Scirpus juncoides) herbicidal ratio grade (Scirpus juncoides),also measured
"COCc1nnc2c(C(=O)Nc3nnnn3C)ccc(C(F)(F)F)n12 [2-010, 3-(Methoxymethyl)-N-(1-methyl-1H-tetrazol-5-yl)-5-(trifluoromethyl)-[1,2,4]triazol o[4,3-a]pyridine-8-carboxamide]",3 (Herbicidal ratio of 40% or more and less than 70%),4 (Herbicidal ratio of 70% or more and less than 90%),5 (Herbicidal ratio of 90% or more (almost completely withered)),3 (Herbicidal ratio of 40% or more and less than 70%),5 (Herbicidal ratio of 90% or more (almost completely withered)),5 (Herbicidal ratio of 90% or more (almost completely withered)),5 (Herbicidal ratio of 90% or more (almost completely withered)),4 (Herbicidal ratio of 70% or more and less than 90%),5 (Herbicidal ratio of 90% or more (almost completely withered)),5 (Herbicidal ratio of 90% or more (almost completely withered)),5 (Herbicidal ratio of 90% or more (almost completely withered)),4 (Herbicidal ratio of 70% or more and less than 90%),5 (Herbicidal ratio of 90% or more (almost completely withered)),4 (Herbicidal ratio of 70% or more and less than 90%),5 (Herbicidal ratio of 90% or more (almost completely withered)),3 (Herbicidal ratio of 40% or more and less than 70%),2 (Herbicidal ratio of 20% or more and less than 40%),4 (Herbicidal ratio of 70% or more and less than 90%),5 (Herbicidal ratio of 90% or more (almost completely withered)),4 (Herbicidal ratio of 70% or more and less than 90%),K: herbicidal effect on Lolium multiflorum Lam. (Lolium multiflorum Lam.): 3 (Herbicidal ratio of 40% or more and less than 70%); melting point: 205 to 209 °C
CCC(CC)c1nnc2c(C(=O)Nc3nnnn3C)ccc(C(F)(F)F)n12 [2-006],1 (Herbicidal ratio of 5% or more and less than 20%),4 (Herbicidal ratio of 70% or more and less than 90%),5 (Herbicidal ratio of 90% or more (almost completely withered)),3 (Herbicidal ratio of 40% or more and less than 70%),5 (Herbicidal ratio of 90% or more (almost completely withered)),4 (Herbicidal ratio of 70% or more and less than 90%),5 (Herbicidal ratio of 90% or more (almost completely withered)),5 (Herbicidal ratio of 90% or more (almost completely withered)),5 (Herbicidal ratio of 90% or more (almost completely withered)),5 (Herbicidal ratio of 90% or more (almost completely withered)),5 (Herbicidal ratio of 90% or more (almost completely withered)),3 (Herbicidal ratio of 40% or more and less than 70%),5 (Herbicidal ratio of 90% or more (almost completely withered)),3 (Herbicidal ratio of 40% or more and less than 70%),5 (Herbicidal ratio of 90% or more (almost completely withered)),2 (Herbicidal ratio of 20% or more and less than 40%),4 (Herbicidal ratio of 70% or more and less than 90%),5 (Herbicidal ratio of 90% or more (almost completely withered)),5 (Herbicidal ratio of 90% or more (almost completely withered)),5 (Herbicidal ratio of 90% or more (almost completely withered)),K: herbicidal effect on Lolium multiflorum Lam. (Lolium multiflorum Lam.): 1 (Herbicidal ratio of 5% or more and less than 20%)
COc1ccc(CSc2nnc3c(C(=O)Nc4nnc(C)o4)ccc(C(F)(F)F)n23)cc1 [1-114],,,,,,,,,,,,,,,,,,0 (Herbicidal ratio of 5% or less (almost no effect)),0 (Herbicidal ratio of 5% or less (almost no effect)),1 (Herbicidal ratio of 5% or more and less than 20%),c (Zea mays) effect on crop grade (Zea mays): 0 (Herbicidal ratio of 5% or less (almost no effect)); d (Glycine max) effect on crop grade (Glycine max): 0 (Herbicidal ratio of 5% or less (almost no effect)); f (Beta vulgaris ssp. vulgaris) effect on crop grade [1]: 4 (Herbicidal ratio of 70% or more and less than 90%); e (Triticum aestivum) effect on crop grade (Triticum aestivum): 0 (Herbicidal ratio of 5% or less (almost no effect)); b (directly sowed Oryza sativa) effect on crop grade [2]: 0 (Herbicidal ratio of 5% or less (almost no effect)); g (Brassica campestris L.) effect on crop grade (Brassica campestris L.): 0 (Herbicidal ratio of 5% or less (almost no effect)); M (Abutilon theophrasti) herbicidal effect grade (Abutilon theophrasti): 2 (Herbicidal ratio of 20% or more and less than 40%); F (Digitaria ciliaris) herbicidal effect grade (Digitaria ciliaris): 1 (Herbicidal ratio of 5% or more and less than 20%); N (Amaranthus retroflexus) herbicidal effect grade (Amaranthus retroflexus): 3 (Herbicidal ratio of 40% or more and less than 70%); H (Echinochloa crus-galli var. crus-galli) herbicidal effect grade [3]: 3 (Herbicidal ratio of 40% or more and less than 70%); P (Stellaria media) herbicidal effect grade (Stellaria media): 4 (Herbicidal ratio of 70% or more and less than 90%); Q (Galium spurium) herbicidal effect grade (Galium spurium): 1 (Herbicidal ratio of 5% or more and less than 20%); R (Veronica persica) herbicidal effect grade (Veronica persica): 3 (Herbicidal ratio of 40% or more and less than 70%); I (Avena fatua) herbicidal effect grade (Avena fatua): 0 (Herbicidal ratio of 5% or less (almost no effect)); O (Chenopodium album) herbicidal effect grade (Chenopodium album): 5 (Herbicidal ratio of 90% or more (almost completely withered)); J (Alopecurus myosuroides) herbicidal effect grade (Alopecurus myosuroides): 0 (Herbicidal ratio of 5% or less (almost no effect)); L (Apera spica-venti.) herbicidal effect grade (Apera spica-venti.): 0 (Herbicidal ratio of 5% or less (almost no effect)); K (Lolium multiflorum Lam.) herbicidal effect grade (Lolium multiflorum Lam.): 0 (Herbicidal ratio of 5% or less (almost no effect))
CCOc1nnc2c(C(=O)Nc3nnco3)ccc(C(F)(F)F)n12 [1-112],,,,,,,,,,,,,,,,,,0 (Herbicidal ratio of 5% or less (almost no effect)),1 (Herbicidal ratio of 5% or more and less than 20%),2 (Herbicidal ratio of 20% or more and less than 40%),c (Zea mays) effect on crop grade (Zea mays): 0 (Herbicidal ratio of 5% or less (almost no effect)); d (Glycine max) effect on crop grade (Glycine max): 3 (Herbicidal ratio of 40% or more and less than 70%); f (Beta vulgaris ssp. vulgaris) effect on crop grade [1]: 5 (Herbicidal ratio of 90% or more (almost completely withered)); e (Triticum aestivum) effect on crop grade (Triticum aestivum): 0 (Herbicidal ratio of 5% or less (almost no effect)); b (directly sowed Oryza sativa) effect on crop grade [2]: 0 (Herbicidal ratio of 5% or less (almost no effect)); g (Brassica campestris L.) effect on crop grade (Brassica campestris L.): 3 (Herbicidal ratio of 40% or more and less than 70%); M (Abutilon theophrasti) herbicidal effect grade (Abutilon theophrasti): 3 (Herbicidal ratio of 40% or more and less than 70%); F (Digitaria ciliaris) herbicidal effect grade (Digitaria ciliaris): 1 (Herbicidal ratio of 5% or more and less than 20%); N (Amaranthus retroflexus) herbicidal effect grade (Amaranthus retroflexus): 4 (Herbicidal ratio of 70% or more and less than 90%); H (Echinochloa crus-galli var. crus-galli) herbicidal effect grade [3]: 2 (Herbicidal ratio of 20% or more and less than 40%); P (Stellaria media) herbicidal effect grade (Stellaria media): 4 (Herbicidal ratio of 70% or more and less than 90%); Q (Galium spurium) herbicidal effect grade (Galium spurium): 0 (Herbicidal ratio of 5% or less (almost no effect)); R (Veronica persica) herbicidal effect grade (Veronica persica): 5 (Herbicidal ratio of 90% or more (almost completely withered)); I (Avena fatua) herbicidal effect grade (Avena fatua): 0 (Herbicidal ratio of 5% or less (almost no effect)); O (Chenopodium album) herbicidal effect grade (Chenopodium album): 5 (Herbicidal ratio of 90% or more (almost completely withered)); J (Alopecurus myosuroides) herbicidal effect grade (Alopecurus myosuroides): 0 (Herbicidal ratio of 5% or less (almost no effect)); L (Apera spica-venti.) herbicidal effect grade (Apera spica-venti.): 0 (Herbicidal ratio of 5% or less (almost no effect)); K (Lolium multiflorum Lam.) herbicidal effect grade (Lolium multiflorum Lam.): 0 (Herbicidal ratio of 5% or less (almost no effect))
